Structures are written as SMILES.

Consider six compounds from PMC11219860, “A chemogenetic approach for dopamine imaging with tunable sensitivity” (Nature Communications, 2024).

Test [1] concerns dLight1.3b-expressing HEK293T sniffer cells on primary DArgic neurons. Briefly: DA release imaging from cultured DArgic neurons with dLight1.3b sniffer cells. It counts as cell-based, mouse. The conditions noted are these: 4-AP 250 µM in perfusion. How it is done:
Primary DA (DA) neurons were grown on a layer of cortical astrocytes. The astrocytes were first prepared from P0-P2 C57BL6 mice, grown in T75 flask and then seeded on collagen/poly-L-lysine coated 15 mm glass coverslips at a concentration of 100,000 cells/ml. The cells were allowed to grow until close to confluence before the seeding of neurons. Primary DArgic neurons were prepared and cultured from P0-P2 mouse pups using a previously described protocol. Briefly, the ventral midbrain of P0-P2 pups was dissected from DAT^IREScre x Ai9 mice in which DA neurons expressed the red fluorescent protein tdTomato. These were produced by crossing DAT^IREScre mice (catalog #006660, Jackson Labs[31]) to Ai9/tdTomato mice (catalog #007905, Jackson Labs[32]). Both of these lines were on a C57BL/6 J background. Midbrain cells were seeded at a concentration of 240,000 cells/ml on top of the astrocyte monolayer and allowed to grow for 10 days (10 DIV). Two days before imaging, expression of dLight1.3b was induced in stable HEK cells with doxycycline. One day prior to imaging, HEK cells were lifted using trypsin, and 150,000 HEK cells were seeded on top of 10 DIV-cultured neurons in doxycycline-supplemented neuronal medium. Imaging was performed on a confocal microscope (Nikon A1 HD25) using a 40X dry objective and a 488 nm laser to excite dLight1.3b and a 546 nm laser to activate tdTomato and identify DA neurons. On the day of imaging, physiological saline containing drugs at the specified concentration ([…], Sigma; SCH23390, Sigma; DETQ, Enamine) were applied on the culture using a computer-controlled perfusion system (Automate system). A field containing one or more DA neurons was selected based on the tdTomato signal. […]
Event detection was performed using a thresholding algorithm adapted from[80]. In brief, the recorded field of view was divided into square ROIs of 55 um x 55 um size. […] A rolling standard deviation was calculated with the same window size. Events were defined as timepoints at which the fluorescence intensity reading exceeds the averaged intensity by 5 standard deviations.

A further test has as its system DRD1-MSNs. The test can be described thus: Whole-cell electrophysiology of DRD1-MSNs in dorsal striatum brain slices. In kind it is cell-based, mouse. Here is the method: For experiments involving SKF38393 application, to identify DRD1 receptor (DRD1)-positive neurons in the dorsal striatum, DRD1:cre mice injected with AAV5-hSyn-dlox-ChrimsonR-tdTomato were used. 3–4 weeks after viral injection, mice were anesthetized with 5% isoflurane and euthanized by decapitation. […] Slices were kept at 34 °C for 10–20 minutes and then at room temperature until recordings. In the recording chamber, slices were superfused with ACSF at 30–32 °C. Patch pipettes (3–7 MΩ) were pulled from borosilicate glass pipettes (GC150T-10, Harvard Apparatus). The internal solution contained (in mM): potassium gluconate 130, MgCl2 4, MgATP 3.4, Na3GTP 0.1, creatine phosphate 10, HEPES 5, and EGTA 1.1. The membrane potential was measured using EPC 10 USB Patch Clamp Amplifiers (HEKA). The access resistance was monitored by a hyperpolarizing step of −10 mV. The identification of DRD1-positive neurons was performed by the presence of red fluorescence protein and photo-evoked current or potential (@2 Hz, 10 ms duration, 2 pulses or 500 ms continuous pulse. light source: Colibri 7, Zeiss; 630 nm wavelength, 1 mW). To assess the excitability of neurons, positive currents were injected (0–500 pA) and the number of action potentials was counted at each current step. To measure input resistance, negative currents were injected (−200 to 0 pA, every 50 pA, 500 ms), as previously described. The resting membrane potential was measured at 0 pA current input.
Action potentials were evoked by current injection (50–500 pA, 500 ms) in current-clamped neurons. Neurons were recorded from in the presence of picrotoxin (100 µM), CGP55485 (0.3 µM), DNQX (10 µM), and MK801 (10 µM) to block GABAA, GABAB, AMPA and NMDA receptors, respectively. DA (10 µM) was applied to brain slices in the presence of cocaine (5 µM) to prevent reuptake.

The test system of a further test is human DRD1 (hmDRD1). The conditions noted are these: human clones; ref Hao et al., 2019; Wang et al., 2018; cited from earlier work.
For a further test, the target named is T1, msDRD1 (Mus musculus, UniProt Q61616).
T1 construct: expressed in transfected cells; host or cells: HEK293T
The conditions noted are these: rodent (rat or mouse); ref Hao et al., 2019; Wang et al., 2018; cited from earlier work.

A further test addresses dLight1.3b (Homo sapiens, UniProt P21728). Briefly: DA titrations on dLight1.3b-expressing HEK293 cells (confocal fluorescence imaging). It counts as cell-based. The conditions noted are these: D1-PAM 5 μM. Here is the method:
Cells were transfected at 50–60% confluency in glass-bottomed dishes (either individually or in 24-well plates) using the Effectene transfection kit (Qiagen) according to manufacturer instructions, and imaged 24–48 h after transfection. The Flp-In™ T-REx™ 293 cells (Thermo Fisher) with a stably integrated dLight1.3b cassette[48] were cultured as follows: the cells were cultured using HEK293T cell medium with the addition of Blasticidin (15 µg/ml) and Hygromycin B (200 µg/ml). To induce the expression of dLight1.3b, doxycycline (500 ng/ml) was added to the culture medium for 24–48 hours. Before imaging, cells were rinsed with 1 mL of Hank’s Balanced Salt Solution (HBSS, Life Technologies) supplemented with Ca^2+ (2 mM) and Mg^2+ (1 mM), and imaged at room temperature with a final HBSS volume of either 100 µL for each individual 1.5 cm glass bottom dish, or 500 µL for 24-well plates. Time-lapse imaging was performed on an inverted Zeiss LSM 800 confocal microscope using a 488 nm laser and a 40X oil-based objective. During imaging, ligands were added in bolus on the cells using a micropipette to reach the final specified concentrations of ligand over the cells. For quantification, except otherwise noted, regions of interest (ROI) were selected manually using the threshold function of Fiji to isolate the cell membrane. Sensor response (∆F/F) was calculated as the following: (F(t)-F_base)/F_base with F(t) being the ROI fluorescence value at each time point (t), and F_base being the mean fluorescence of the 10-time points immediately prior to ligand addition.

T1 sequence (Q61616 whole entry): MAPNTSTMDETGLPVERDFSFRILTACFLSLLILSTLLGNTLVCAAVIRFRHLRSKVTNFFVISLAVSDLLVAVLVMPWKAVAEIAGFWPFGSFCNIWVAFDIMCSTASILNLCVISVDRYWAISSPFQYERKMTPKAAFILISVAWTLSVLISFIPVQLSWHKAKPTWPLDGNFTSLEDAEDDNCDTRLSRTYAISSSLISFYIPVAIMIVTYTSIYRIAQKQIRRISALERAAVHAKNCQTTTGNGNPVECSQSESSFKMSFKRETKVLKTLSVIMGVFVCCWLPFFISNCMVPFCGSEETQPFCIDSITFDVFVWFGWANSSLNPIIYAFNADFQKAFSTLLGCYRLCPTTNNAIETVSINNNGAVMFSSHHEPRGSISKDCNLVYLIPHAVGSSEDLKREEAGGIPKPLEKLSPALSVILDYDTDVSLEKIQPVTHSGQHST

For the compound `Nc1ccncc1` [4-AP, 4-aminopyridine], in test [1], the DA release events result is recorded as “larger localized DA release events started to become noticeable”. In the case of `NCCc1ccc(O)c(O)c1` [DA, Dopamine], the “number of action potentials evoked by current injection” value in the test with DRD1-MSNs (DA 10 µM bath application vs control) is reported as “increased the number of action potentials”. Regarding `C[C@H]1c2cccc(CCC(C)(C)O)c2C[C@H](CO)N1C(=O)Cc1c(Cl)cccc1Cl` [LY315207, 2-(2,6-Dichlorophenyl)-1-((1S,3R)-5-(3-hydroxy-3-methylbutyl)-3-(hydroxymethyl)-1-methyl-3,4-dihydroisoquinolin-2(1H)-yl)ethan-1-one], in the test on human DRD1 (hmDRD1), the “maximal potentiation of dopamine” value is recorded as 75-85%. Moreover, the “partial potentiation of dopamine (% of max potentiation)” value at msDRD1 was 45-53%.

With `Cn1c2ccccc2c(=O)c2c(=O)n(-c3ccccc3)c(C3CCCCC3)nc21` [MLS1082], the “effect on the DA sensitivity of dLight1.3b” value at dLight1.3b was “did not have a noticeable effect”. The same measure, in the same setting: next, `CC(C)(C)C1CCc2c(sc(NC(=O)c3ccncc3)c2C(N)=O)C1` (stereo not shown) [MLS6585]: “did not have a noticeable effect”. `Oc1cc2c(cc1O)C(c1ccccc1)CNCC2` (stereo not shown) [SKF38393]: the “firing rate during current-injection of DRD1-MSNs” value in the test on DRD1-MSNs (SKF38393 1 µM superfusion) was “significant increase”.
